Reference: patent US20090118286A1, “Heterobicyclic Acrylamides” (Bayer Cropscience AG, priority 2005, published 2009)

Experiment: log P determination by HPLC (EEC Directive 79/831 Annex V.A8, gradient method)
Assay type: physicochemical

| Physical data: log P | Physical data: logP | Compound |
| --- | --- | --- |
| 2.7 |  | O=C(/C=C/c1c(-c2ccccc2F)nc2sc(C(F)(F)F)nn12)N1CCOCC1 [Example 0507] |
| 4.56 |  | CC(COc1ccccc1)NC(=O)/C=C/c1c(-c2ccc(Cl)cc2Cl)nc2sc(C(F)(F)F)nn12 (stereo not shown) [Example 0546] |
| 2.84 |  | CC(NC(=O)/C=C/c1c(-c2ccc(Cl)cc2Cl)nc2sc(C(F)(F)F)nn12)c1ccccn1 (stereo not shown) [Example 0555] |
| 3.68 |  | O=C(/C=C/c1c(-c2ccc(Cl)cc2Cl)nc2sc(C(F)(F)F)nn12)NOCC1CC1 [Example 0563] |
| 4.23 |  | CC(ONC(=O)/C=C/c1c(-c2ccc(Cl)cc2Cl)nc2sc(C(F)(F)F)nn12)c1ccccc1 (stereo not shown) [Example 0565] |
| 4.32 |  | CCC(CC)NC(=O)/C=C/c1c(-c2ccc(Cl)cc2Cl)nc2sc(C(F)(F)F)nn12 [Example 0567] |
| 3.46 |  | CN(C)C(=O)/C=C/c1c(-c2ccc(Cl)cc2Cl)nc2sc(C(F)(F)F)nn12 [Example 0568] |
| 3.82 |  | CCN(C)C(=O)/C=C/c1c(-c2ccc(Cl)cc2Cl)nc2sc(C(F)(F)F)nn12 [Example 0569] |
| 4.0 |  | C=CCN(C)C(=O)/C=C/c1c(-c2ccc(Cl)cc2Cl)nc2sc(C(F)(F)F)nn12 [Example 0570] |
| 3.8 |  | CON(C)C(=O)/C=C/c1c(-c2ccc(Cl)cc2Cl)nc2sc(C(F)(F)F)nn12 [Example 0572] |
| 4.31 |  | O=C(/C=C/c1c(-c2ccc(Cl)cc2Cl)nc2sc(C(F)(F)F)nn12)N1CCCCC1 [Example 0574] |
| 3.34 |  | O=C(/C=C/c1c(-c2ccc(Cl)cc2Cl)nc2sc(C(F)(F)F)nn12)N1CCOCC1 [Example 0575] |
| 4.12 |  | O=C(C=Cc1c(-c2ccc(F)cc2Cl)nc2sc(C(F)(F)F)nn12)NC1CCCCC1C(F)(F)F (stereo not shown) [Example 0600] |
| 4.25 |  | O=C(C=Cc1c(-c2ccc(F)cc2Cl)nc2sc(C(F)(F)F)nn12)NC(CC(F)(F)F)c1ccccc1 (stereo not shown) [Example 0609] |
|  | 3.79 | CCN(CC)C(=O)/C=C/c1c(-c2ccc(F)cc2Cl)nc2sc(C(F)(F)F)nn12 [Example 0644] |
|  | 4.28 | O=C(/C=C/c1c(-c2ccc(F)cc2Cl)nc2sc(C(F)(F)F)nn12)N1CCCC(C(F)(F)F)C1 (stereo not shown) [Example 0648] |
|  | 2.85 | COc1ccc(-c2nc3sc(C(F)(F)F)nn3c2/C=C/C(=O)NC(C)C)cc1OC [Example 0652] |
|  | 2.64 | COc1ccc(-c2nc3sc(C(F)(F)F)nn3c2/C=C/C(=O)NC2CC2)cc1OC [Example 0656] |
|  | 3.03 | COc1ccc(-c2nc3sc(C(F)(F)F)nn3c2/C=C/C(=O)NC2CCC2)cc1OC [Example 0657] |
|  | 3.26 | COc1ccc(-c2nc3sc(C(F)(F)F)nn3c2/C=C/C(=O)NC2CCCC2)cc1OC [Example 0658] |
|  | 3.55 | COc1ccc(-c2nc3sc(C(F)(F)F)nn3c2/C=C/C(=O)NC2CCCCC2)cc1OC [Example 0659] |
|  | 2.95 | COc1ccc(-c2nc3sc(C(F)(F)F)nn3c2/C=C/C(=O)NCC2CC2)cc1OC [Example 0660] |
|  | 3.14 | CCC(C)NC(=O)/C=C/c1c(-c2ccc(OC)c(OC)c2)nc2sc(C(F)(F)F)nn12 (stereo not shown) [Example 0661] |
|  | 3.5 | CCCC(C)NC(=O)/C=C/c1c(-c2ccc(OC)c(OC)c2)nc2sc(C(F)(F)F)nn12 (stereo not shown) [Example 0662] |
|  | 2.7 | COCC(C)NC(=O)/C=C/c1c(-c2ccc(OC)c(OC)c2)nc2sc(C(F)(F)F)nn12 (stereo not shown) [Example 0663] |
|  | 3.41 | COc1ccc(-c2nc3sc(C(F)(F)F)nn3c2/C=C/C(=O)NC(C)C(C)C)cc1OC (stereo not shown) [Example 0668] |

| Physical data: log P | Physical data: logP | Compound |
| --- | --- | --- |
|  | 3.29 | COc1ccc(-c2nc3sc(C(F)(F)F)nn3c2/C=C/C(=O)NC(C)C(F)(F)F)cc1OC (stereo not shown) [Example 0669] |
|  | 3.5 | COc1ccc(-c2nc3sc(C(F)(F)F)nn3c2/C=C/C(=O)NC(C)c2ccccc2)cc1OC (stereo not shown) [Example 0683] |
|  | 3.76 | CCC(NC(=O)/C=C/c1c(-c2ccc(OC)c(OC)c2)nc2sc(C(F)(F)F)nn12)c1ccccc1 (stereo not shown) [Example 0684] |
|  | 3.72 | COc1ccc(-c2nc3sc(C(F)(F)F)nn3c2/C=C/C(=O)NC(C)COc2ccccc2)cc1OC (stereo not shown) [Example 0689] |
|  | 4.46 | CCC(NC(=O)/C=C/c1c(-c2ccc(OC)c(OC)c2)nc2sc(C(F)(F)F)nn12)C1CCCCC1 (stereo not shown) [Example 0691] |
|  | 2.16 | COc1ccc(-c2nc3sc(C(F)(F)F)nn3c2/C=C/C(=O)NC(C)c2ccccn2)cc1OC (stereo not shown) [Example 0698] |
|  | 2.88 | COc1ccc(-c2nc3sc(C(F)(F)F)nn3c2/C=C/C(=O)NOCC2CC2)cc1OC [Example 0706] |
|  | 3.37 | COc1ccc(-c2nc3sc(C(F)(F)F)nn3c2/C=C/C(=O)NOC(C)c2ccccc2)cc1OC (stereo not shown) [Example 0708] |
|  | 3.37 | CCC(CC)NC(=O)/C=C/c1c(-c2ccc(OC)c(OC)c2)nc2sc(C(F)(F)F)nn12 [Example 0710] |
|  | 3.53 | CCN(CC)C(=O)/C=C/c1c(-c2ccc(OC)c(OC)c2)nc2sc(C(F)(F)F)nn12 [Example 0716] |
|  | 3.41 | COc1ccc(-c2nc3sc(C(F)(F)F)nn3c2/C=C/C(=O)N2CCCCC2)cc1OC [Example 0717] |
|  | 2.58 | COc1ccc(-c2nc3sc(C(F)(F)F)nn3c2/C=C/C(=O)N2CCOCC2)cc1OC [Example 0718] |
|  | 3.72 | CC(C)CNC(=O)/C=C/c1c(-c2ccccc2Cl)nc2sc(C(C)(C)C)nn12 [Example 0794] |
|  | 3.88 | CC(NC(=O)/C=C/c1c(-c2ccccc2Cl)nc2sc(C(C)(C)C)nn12)C(F)(F)F (stereo not shown) [Example 0795] |
|  | 4.46 | CC(C)C(NC(=O)/C=C/c1c(-c2ccccc2Cl)nc2sc(C(C)(C)C)nn12)C(F)(F)F (stereo not shown) [Example 0796] |
|  | 4.06 | CC(C)(C)CNC(=O)/C=C/c1c(-c2ccccc2Cl)nc2sc(C(C)(C)C)nn12 [Example 0797] |
|  | 4.11 | CC(C)CCNC(=O)/C=C/c1c(-c2ccccc2Cl)nc2sc(C(C)(C)C)nn12 [Example 0798] |
|  | 4.32 | CC(C)(C)c1nn2c(/C=C/C(=O)NC3CCC(C(F)(F)F)CC3)c(-c3ccccc3Cl)nc2s1 (stereo not shown) [Example 0799] |
|  | 3.61 | CC(C)(C)c1nn2c(/C=C/C(=O)NCC(F)(F)F)c(-c3ccccc3Cl)nc2s1 [Example 0800] |
|  | 3.95 | CC(C)(C)NC(=O)/C=C/c1c(-c2ccccc2Cl)nc2sc(C(C)(C)C)nn12 [Example 0801] |
|  | 3.33 | CC(C)NC(=O)/C=C/c1c(-c2ccccc2Cl)nc2sc(C(C)(C)C)nn12 [Example 0802] |
|  | 3.67 | CCC(C)NC(=O)/C=C/c1c(-c2ccccc2Cl)nc2sc(C(C)(C)C)nn12 (stereo not shown) [Example 0803] |
|  | 4.4 | CC(C)(C)CCNC(=O)/C=C/c1c(-c2ccccc2Cl)nc2sc(C(C)(C)C)nn12 [Example 0805] |
|  | 3.07 | CC(C)(C)c1nn2c(/C=C/C(=O)NC3CC3)c(-c3ccccc3Cl)nc2s1 [Example 0807] |
|  | 3.52 | CC(C)(C)c1nn2c(/C=C/C(=O)NC3CCC3)c(-c3ccccc3Cl)nc2s1 [Example 0808] |
|  | 4.12 | CC(C)(C)c1nn2c(/C=C/C(=O)NC3CCCC3)c(-c3ccccc3Cl)nc2s1 [Example 0809] |
